We go through twelve compounds from patent US6582947B1, “Medical use of gene and vector encoding a multisubstrate deoxyribonucleoside kinase” (BIO VICI, priority 1998, dated 2003).

SMILES strings stand for the structures. Like-named read-outs stand apart in the source and are kept apart here.

In one experiment the target is T1, recombinant Dm-dNK (Drosophila melanogaster, UniProt Q9XZT6).
T1 sequence (Q9XZT6 1-250): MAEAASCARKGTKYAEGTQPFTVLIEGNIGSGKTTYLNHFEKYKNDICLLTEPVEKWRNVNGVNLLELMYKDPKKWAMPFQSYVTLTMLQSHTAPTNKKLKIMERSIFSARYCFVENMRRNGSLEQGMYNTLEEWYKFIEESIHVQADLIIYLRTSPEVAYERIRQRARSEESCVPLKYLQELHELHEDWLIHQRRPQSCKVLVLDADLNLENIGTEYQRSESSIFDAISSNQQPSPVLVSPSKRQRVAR
Nature of the experiment: Phosphoryl transfer assay, substrate specificity of recombinant Dm-dNK. The conditions noted are these: naturally occurring nucleosides.

Experiment [1] has as its target T2, HSV-1 TK (Human herpesvirus 1, UniProt P0DTH5). The experiment in a line: biochemical.
Protocol: (§1) The competion experiments were carried out in the following way: The standard reaction mixture contained 2.5 mM MgCl2, 10 mM dithio threitol, 1 mg/ml bovine serum albumin, 2.5 mM ATP, 10 mM NaF, 2 μM methyl-^3H-thymidine, an appropriate amount of a nucleoside analog and the multisubstrate deoxyribonucleoside kinase in an amount resulting in a linear conversion of the substrate, in a total reaction mixture of 50 μl of 50 mM Tris-HCl, pH 8.0. The reaction mixture was incubated at 37° C. for 30 min, and the reaction was terminated by spotting on to DE-81 discs (Whatman). The discs were instantly immersed and washed in ethanol (70%). The filters were dried and assayed for radioactivity in a tuluene-based scintillant.
Another experiment has as its system HSV-TK. Particulars: cited from earlier work.
In a further experiment the target is T3, deoxyguanosine kinase (Homo sapiens, UniProt Q16854).
T3 sequence (Q16854 40-277): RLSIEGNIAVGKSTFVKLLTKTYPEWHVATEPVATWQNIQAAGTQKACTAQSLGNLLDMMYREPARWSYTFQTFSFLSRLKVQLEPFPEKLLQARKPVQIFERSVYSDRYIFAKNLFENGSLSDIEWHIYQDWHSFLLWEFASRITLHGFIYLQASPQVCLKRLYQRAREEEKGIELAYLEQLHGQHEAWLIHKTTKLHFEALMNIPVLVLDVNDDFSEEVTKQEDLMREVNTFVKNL
The conditions noted are these: cited from earlier work.

The target of experiment [2] is T2, HSV-1 TK.
Protocol: as §1

T2 sequence (P0DTH5 whole entry): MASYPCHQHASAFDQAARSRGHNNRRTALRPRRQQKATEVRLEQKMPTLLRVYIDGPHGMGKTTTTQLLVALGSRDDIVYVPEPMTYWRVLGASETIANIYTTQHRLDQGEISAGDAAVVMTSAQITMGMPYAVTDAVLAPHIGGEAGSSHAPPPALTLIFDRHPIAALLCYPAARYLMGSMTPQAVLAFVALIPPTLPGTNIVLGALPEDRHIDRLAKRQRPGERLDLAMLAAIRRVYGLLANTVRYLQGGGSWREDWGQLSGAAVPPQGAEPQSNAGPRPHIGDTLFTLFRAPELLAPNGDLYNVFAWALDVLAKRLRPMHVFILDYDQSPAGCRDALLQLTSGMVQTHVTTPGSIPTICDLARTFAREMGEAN
Protocol for recombinant Dm-dNK: A phosphor transferase assay was used to determine the substrate specificity of the putative deoxyribonucleoside kinase. […] The samples were incubated 30 min at 37° C. 2 μl of the reaction mixtures were spotted on poly(ethyleneimine) cellulose F thin layer chromatography sheets (Merck Inc.) and the nucleotide separated in a buffer containing NH4OH:isobutyric acid:dH2O (1:66:33). The sheets were autoradiographed using phosphoimaging plates (BAS 1000, Fujix).

In the case of `Nc1ccn([C@H]2C[C@H](O)[C@@H](CO)O2)c(=O)n1` [deoxycytidine], the “phosphorylation by the enzyme (in words)” value on recombinant Dm-dNK was “efficiently phosphorylated”.
Still for that read-out and setting: the result for `Nc1ncnc2c1ncn2[C@H]1C[C@H](O)[C@@H](CO)O1` [deoxyadenosine] reads “efficiently phosphorylated”.
Take `O=c1[nH]c(=O)n([C@H]2C[C@H](O)[C@@H](CO)O2)cc1F` [FdU, 5-fluorodeoxyuridine]: at HSV-1 TK [1], the IC50 was 58 µM.
Consider `Nc1ccn([C@@H]2O[C@H](CO)[C@@H](O)[C@@H]2O)c(=O)n1` [AraC, 1-β-D-arabinofuranosylcytosine], for which the IC50 against HSV-1 TK [1] is greater than 1000 µM. In addition, the “phosphorylation by HSV-TK (in words)” value in the experiment with HSV-TK was “cannot phosphorylate”.
With `O=c1[nH]c(=O)n([C@@H]2O[C@H](CO)[C@@H](O)[C@@H]2O)cc1/C=C/Br` [BVaraU, (E)-5-(2-bromovinyl)-1-β-D-arabinofuranosyl-uracil], half-maximal inhibition against HSV-1 TK [1] (IC50) was put at 4 µM. Besides, on deoxyguanosine kinase, the “phosphorylation by deoxyguanosine kinase (in words)” value is “does not phosphorylate”.
As to `Nc1ccn([C@H]2CC[C@@H](CO)O2)c(=O)n1` [ddC, 2′,3′-dideoxycytidine], the IC50 against HSV-1 TK [1] was greater than 1000 µM. The “phosphorylation by HSV-TK (in words)” value in the experiment with HSV-TK is given as “cannot phosphorylate”. Moreover, on deoxyguanosine kinase, the “phosphorylation by deoxyguanosine kinase (in words)” value is given as “does not phosphorylate”.
On to `Nc1nc2c(ncn2[C@H]2C[C@H](O)[C@@H](CO)O2)c(=O)[nH]1` [deoxyguanosine], for which the “phosphorylation by the enzyme (in words)” value at recombinant Dm-dNK was “efficiently phosphorylated”.
`O=c1[nH]c(=O)n([C@H]2C[C@H](O)[C@@H](CO)O2)cc1/C=C/Br` [BVDU, (E)-5-(2-bromovinyl)-2′-deoxyuridine]: the IC50 on HSV-1 TK [1] worked out at 3 µM. Further, the “phosphorylation by deoxyguanosine kinase (in words)” value on deoxyguanosine kinase is given as “does not phosphorylate”.
Turning to `Nc1ccn(C2CSC(CO)O2)c(=O)n1` (stereo not shown) [3TC], the “phosphorylation by HSV-TK (in words)” value with HSV-TK is “cannot phosphorylate”. The IC50 against HSV-1 TK [2] is greater than 1000 µM. The “phosphorylation by deoxyguanosine kinase (in words)” value on deoxyguanosine kinase was “does not phosphorylate”.
In turn, `O=c1[nH]c(=O)n([C@@H]2O[C@H](CO)[C@@H](O)[C@@H]2F)cc1I` [FIAU, 1-(2-deoxy-2-fluoro-β-D-arabinofuranosyl)-5-iodouracil] yielded an IC50 at HSV-1 TK [1] of 2 µM.
Turning to `Nc1nc(Cl)nc2c1ncn2[C@H]1C[C@H](O)[C@@H](CO)O1` [CdA, 2-chloro-2′-deoxyadenosine], the IC50 against HSV-1 TK [1] was greater than 1000 µM. In addition, the “phosphorylation by HSV-TK (in words)” value with HSV-TK was “cannot phosphorylate”.
`Nc1ccn([C@@H]2O[C@H](CO)[C@@H](O)C2(F)F)c(=O)n1` [dFdC, 2′,2′-difluorodeoxycytidine] showed an IC50 against HSV-1 TK [1] greater than 1000 µM. Moreover, the “phosphorylation by HSV-TK (in words)” value with HSV-TK was “cannot phosphorylate”. In addition, at deoxyguanosine kinase, the “phosphorylation by deoxyguanosine kinase (in words)” value is listed as “does not phosphorylate”.

What is called IC50 is the midpoint of a concentration-inhibition curve. A lower IC50 goes with inhibition by little substance.
